What is called EC50 is the concentration giving half of the maximal effect. What is called IC50 is the concentration at which inhibition is half-maximal. By Tmax is commonly meant the time from dosing to the highest level. The term bioavailability denotes dose-corrected exposure relative to a reference, in per cent. For orientation: AUC(0-inf) means the area under the concentration-time curve extrapolated to infinity. Broadly, the Cmax is the highest concentration seen after dosing. As usually defined, the half-life is the time in which the quantity being followed falls by half. Low values mean fast loss, high ones slow loss.

Data set [1] concerns human mesenchymal stem cells (hMSCs). As to the kind of experiment: chondrogenic nodule formation by hMSCs (high throughput screen). In kind it is cell-based. In outline:
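Primary hMSCs (10^4/well) in serum-free DMEM exposed to compounds at 5 μM for 4 days. Chondrogenic nodules stained with Nile red (binds collagens) and counted by high-content imaging with 488 laser excitation. In 96-well follow-up, 50,000 cells/well treated 4 days, formalin-fixed, stained with 1 μg/ml Rhodamine B.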

For data set [2], the system named is primary bovine chondrocytes. As to the kind of experiment: inhibition of cytokine-induced nitric oxide release (Greiss reaction). It counts as cell-based. The text has this:
(§1) In the screen, hMSCs were used as a surrogate to future targeting of the resident MSCs with the cartilage joint. It was in that setting upon which we identified PRO1. In a joint injury, the primary cell type a therapeutic would have contact with is the chondrocyte. Although cartilage or chondrocyte-targeted screening has not lead to the development of a successful drug modifying osteoarthritis drug (DMOAD) to date, it is believed that a stem cell-based therapeutic would protect and even repair the existing chondrocytes. Therefore, protection of the articular chondrocytes and cartilage from a mature bovine knee was assessed. PRO1 and its analogues were incubated with primary bovine chondrocytes or cartilage explants cultures grown in the presence of TNFα and oncostatin M to mimic the cytokine-induced damage that can occur during OA. In the presence of the cytokine cocktail, in vitro cultured primary chondrocytes released 4-5 fold more nitric oxide (NO) than the untreated chondrocytes (50 μM vs 10 μM) as measured by the Greiss reaction. In cells treated with the cytokine cocktail and PRO1, the small molecule could effectively block the release of NO by up to 70% FIG. 2C). Similarly, in ex vivo treated cartilage explants, cytokine-induced release of glycosaminoglycans (GAG) was reduced by up to 60% by PRO1 (FIG. 2D). Finally, hMSC were grown in pellet culture for 21 days.
(§2) Primary hMSCs were plated (10,000/well) in 384-well plates and cultured for 18 days. The cells were fixed with 4% formalin, permeabilized with triton (0.5%), digested with 0.5 mg/ml collagenase II to unwind the collagen fibrils, and then immunostained with an antibody recognizing type II collagen. DAPI (2 μg/ml) was added to visualize the nuclei. The chondrogenic nodules stained positive for type II collagen but lacked expression of type X collagen and osteocalcin, markers for chondrocyte hypertrophy and osteoblasts, respectively (not shown). 10,000 hMSCs (passages 3-5) were plated in Greiner 384-well low-bottom plates on day 1. The cells were allowed to adhere and stimulated for 48 hrs (days 2-3) with the indicated stimuli in MSC growth media (Millipore). The media was then removed and replaced with serum-free DMEM for an additional 16 days. This media was replenished on days 10 and 15 of the assay. Primary bovine chondrocytes were isolated from the articular surfaces from mature knees. After one week of culture, 8,500 cells were trypsinized and plated in Greiner 384-well white clear-bottom plates in growth media. […] 20 μl of the supernatant was mixed with 20 μl of the Greiss reagent and quantitated at 540 nm as described by the Promega kit instructions. Bovine cartilage explants (cut in circular explants in a 96 well plate) were cultured in the presence of 20 ng/ml TNFα and 10 ng/ml oncostatin M to induce GAG release for 72 hours (FIG. 2D). PRO1 was added at the indicated concentrations during the entire 72 hrs. […] Parafin sections were hydrated, incubated in low pH Antigen unmasking solution (Vector) at 90 C for 10 minutes, permeabilized with 0.1% collagenase II (only for the sections stained with type II collagen) for 10 minutes, blocked with CAS block for 10 minutes and then incubated with the primary antibody (type II collagen, aggrecan or Timp1) antibody (Abcam) overnight at 4 C. The antigens were visualized through standard ABC detection methods and developed with DAB. Representative of 3 sections stained/treatment group (independent experiments).

In data set [3] the test system is hMSCs. Kind of data set: type II collagen expression in hMSC cultures (18 day assay). In kind it is cell-based, human. As for the experimental part:
The chondrogenic differentiation event was initiated quickly even though a fully differentiated chondrocyte phenotype cannot be assessed prior to 14 days in culture. In an 18 day assay, compound treatment was only required for the first 48 hrs and followed by removal and replacement of the media (in the absence of stimuli, FIG. 2B). The promotion of chondrogenic differentiation was not altered or enhanced upon longer treatment with the stimuli (data not shown).
as §2

For data set [4], the system named is bovine cartilage explants. As to the kind of experiment: cytokine-induced GAG release from cartilage explants ex vivo. As to conditions: TNFα and oncostatin M, 72 hours; up to. It counts as cell-based.
From the text: as §1, with “In cells treated with the cytokine cocktail and PRO1, the small molecule could effectively block the release of NO by up to 70% FIG. 2C). Similarly, in ex vivo treated cartilage explants, cytokine-induced release of glycosaminoglycans (GAG) was reduced by up to 60% by PRO1 (FIG. 2D). Finally, hMSC were grown in pellet culture for 21 days.” left out
Primary hMSCs were plated (10,000/well) in 384-well plates and cultured for 18 days. […] 20 μl of the supernatant was mixed with 20 μl of the Greiss reagent and quantitated at 540 nm as described by the Promega kit instructions. […]

Data set [5] deals with hMSCs. As to the kind of experiment: toxicity in hMSCs. In kind it is cell-based, human. The following applies: 100 μM.
The test system of a further data set is chondrocytes. Kind of data set: toxicity in chondrocytes. As to conditions: 100 μM. It counts as cell-based.
Another data set addresses T1, FLNA/PEBP2β (Homo sapiens, UniProt P21333).
T1 construct: endogenous in cells; host or cells: hMSCs (primary human mesenchymal stem cells)
As to the kind of experiment: immunoprecipitation and Western blotting of FLNA/PEBP2β interaction in hMSCs. It counts as cell-based. The following applies: 12 hr treatment. Here is the method:
hMSCs were treated with […] for 12 hr and lysed as above. 2 μg of anti-PEBP23 antibody was added to the cell lysate and incubated overnight at 4° C. prior to addition of agarose beads bearing immobilized protein A/G. After incubation of the lysate with the protein A/G beads for 1 hour, the beads were collected by centrifugation at 2,000 rpm and washed 3 times with lysis buffer. 30 μL of 2×SDS sample buffer was added to the beads and boiled for 5 min.
(In general: A western blot detects proteins with antibodies after separation by electrophoresis.)

Molecules are shown by their SMILES. Like-named read-outs stand apart in the source and are kept apart here.

T1 sequence (P21333 2-2647 limits assumed): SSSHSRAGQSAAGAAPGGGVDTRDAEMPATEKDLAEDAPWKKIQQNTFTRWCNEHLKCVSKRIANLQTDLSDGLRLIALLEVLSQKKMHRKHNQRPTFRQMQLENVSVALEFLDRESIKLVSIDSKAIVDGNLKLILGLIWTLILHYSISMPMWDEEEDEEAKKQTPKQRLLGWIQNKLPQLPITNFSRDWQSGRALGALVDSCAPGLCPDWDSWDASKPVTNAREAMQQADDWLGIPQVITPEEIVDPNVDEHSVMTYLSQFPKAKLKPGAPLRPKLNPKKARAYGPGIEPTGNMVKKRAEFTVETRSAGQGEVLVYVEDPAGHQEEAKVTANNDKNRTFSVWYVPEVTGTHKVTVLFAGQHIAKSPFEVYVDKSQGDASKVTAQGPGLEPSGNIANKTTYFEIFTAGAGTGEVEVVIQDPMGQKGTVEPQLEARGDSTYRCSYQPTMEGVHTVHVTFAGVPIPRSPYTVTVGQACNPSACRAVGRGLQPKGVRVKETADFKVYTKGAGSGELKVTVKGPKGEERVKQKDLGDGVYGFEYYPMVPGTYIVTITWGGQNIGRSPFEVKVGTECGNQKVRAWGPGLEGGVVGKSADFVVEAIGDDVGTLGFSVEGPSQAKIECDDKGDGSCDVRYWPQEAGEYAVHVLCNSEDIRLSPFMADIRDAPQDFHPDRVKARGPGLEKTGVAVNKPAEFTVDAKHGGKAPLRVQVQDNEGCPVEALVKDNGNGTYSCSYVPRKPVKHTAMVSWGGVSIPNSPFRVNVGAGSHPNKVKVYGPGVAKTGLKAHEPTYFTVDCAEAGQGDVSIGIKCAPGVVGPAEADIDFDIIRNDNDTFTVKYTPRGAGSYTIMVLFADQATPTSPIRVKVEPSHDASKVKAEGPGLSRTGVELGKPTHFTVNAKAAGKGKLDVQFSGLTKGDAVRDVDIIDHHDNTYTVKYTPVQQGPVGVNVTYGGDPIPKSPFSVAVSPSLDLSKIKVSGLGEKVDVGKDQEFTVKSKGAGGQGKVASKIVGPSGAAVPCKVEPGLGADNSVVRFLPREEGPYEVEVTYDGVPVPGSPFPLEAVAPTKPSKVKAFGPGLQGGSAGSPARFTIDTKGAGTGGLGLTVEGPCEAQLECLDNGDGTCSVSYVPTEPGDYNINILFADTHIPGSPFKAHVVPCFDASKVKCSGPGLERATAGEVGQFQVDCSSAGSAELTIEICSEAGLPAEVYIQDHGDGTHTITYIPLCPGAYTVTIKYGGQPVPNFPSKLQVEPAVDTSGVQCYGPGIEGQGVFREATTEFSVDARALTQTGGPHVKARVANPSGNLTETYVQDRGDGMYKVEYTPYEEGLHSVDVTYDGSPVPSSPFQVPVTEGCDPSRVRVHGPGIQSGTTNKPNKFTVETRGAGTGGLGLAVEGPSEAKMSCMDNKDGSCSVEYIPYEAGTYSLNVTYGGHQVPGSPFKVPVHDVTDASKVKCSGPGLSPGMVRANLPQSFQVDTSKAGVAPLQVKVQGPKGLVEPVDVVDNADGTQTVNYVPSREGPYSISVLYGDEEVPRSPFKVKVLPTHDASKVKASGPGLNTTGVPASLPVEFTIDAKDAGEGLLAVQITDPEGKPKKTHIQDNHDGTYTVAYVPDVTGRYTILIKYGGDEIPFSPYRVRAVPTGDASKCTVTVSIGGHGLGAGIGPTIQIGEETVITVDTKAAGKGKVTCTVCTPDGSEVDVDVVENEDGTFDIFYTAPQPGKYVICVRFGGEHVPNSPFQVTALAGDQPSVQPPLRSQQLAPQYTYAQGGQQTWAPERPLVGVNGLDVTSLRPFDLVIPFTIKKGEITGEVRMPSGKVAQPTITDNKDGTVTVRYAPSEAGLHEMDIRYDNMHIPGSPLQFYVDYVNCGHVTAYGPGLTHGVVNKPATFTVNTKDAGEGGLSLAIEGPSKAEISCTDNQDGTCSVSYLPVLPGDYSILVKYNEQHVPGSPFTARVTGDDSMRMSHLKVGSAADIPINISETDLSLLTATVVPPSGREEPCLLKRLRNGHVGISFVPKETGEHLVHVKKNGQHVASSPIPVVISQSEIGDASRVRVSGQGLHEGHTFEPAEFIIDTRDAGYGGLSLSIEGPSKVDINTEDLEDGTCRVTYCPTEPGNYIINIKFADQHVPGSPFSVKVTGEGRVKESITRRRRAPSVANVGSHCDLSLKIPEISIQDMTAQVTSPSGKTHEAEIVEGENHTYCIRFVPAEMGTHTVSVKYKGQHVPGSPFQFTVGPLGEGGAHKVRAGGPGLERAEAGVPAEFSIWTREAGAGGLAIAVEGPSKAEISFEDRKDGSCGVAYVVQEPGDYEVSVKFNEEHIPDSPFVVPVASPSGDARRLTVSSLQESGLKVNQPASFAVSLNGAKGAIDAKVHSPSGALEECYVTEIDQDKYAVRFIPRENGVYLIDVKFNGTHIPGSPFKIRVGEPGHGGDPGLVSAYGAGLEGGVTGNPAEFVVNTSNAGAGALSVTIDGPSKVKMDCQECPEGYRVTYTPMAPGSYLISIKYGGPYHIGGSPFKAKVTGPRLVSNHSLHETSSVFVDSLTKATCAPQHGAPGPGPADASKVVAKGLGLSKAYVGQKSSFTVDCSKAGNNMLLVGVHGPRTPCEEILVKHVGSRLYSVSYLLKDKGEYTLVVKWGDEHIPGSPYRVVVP

In the case of `O=C(O)c1ccccc1C(=O)Nc1ccc(-c2ccccc2)cc1` [AKT], the cartilage nodule formation result in data set [1] (100 nM, 4 days, Rhodamine B stain) was “Rapid Phenotypic Cartilage Nodule Formation”. Besides, the EC50 came out at 0.1 µM in data set [1] (Homo sapiens, Mesenchymal stem cells, 96 h, primary screen, Nile red stained nodules, 4 days, read-out: EC50); 0.225 µM in data set [1] (first value of the cell (before the slash), read-out: CHONDROGENIC μM EC50); 0.08 µM in the data set on hMSCs [3]. The “block of cytokine-induced release of NO” value in data set [2] (TNFα and oncostatin M cocktail, up to) is recorded as “up to 70%”. In addition, in data set [2] (second value of the cell (after the slash), TNFα and oncostatin M, 48 hours, read-out: NO INHIBTION μM IC50), the IC50 stood at 0.45 µM. Further, the “induction of chondrogenic differentiation of hMSCs” value in the data set on hMSCs [3] (compared with known inducers TGFβ3, BMP7 or BMP2, FIG. 2B) is “more potent and efficient”. In data set [4], the “reduction of cytokine-induced release of glycosaminoglycans (GAG)” value is reported as “up to 60%”. Also, the toxicity result in the data set on hMSCs [5] and in the data set with chondrocytes was “No toxicity” each time. The “protein interactions between FLNA and PEBP2β” value at FLNA/PEBP2β is listed as “Inhibits the Protein Interactions”. In addition, the Tmax in the data set “in vivo” (0.05 mg/kg) was 1 h. The same molecule registered a bioavailability in “in vivo” (0.05 mg/kg) of approximately 22%. Besides, in “in vivo” (0.05 mg/kg, AUC0-inf), the area under the curve AUC(0-inf) was 0.342 µM·h. This molecule also came in with a Cmax in the data set “in vivo” (0.05 mg/kg, Cmax) of approximately 100 nM. Further, the concentration at 1 h worked out at 134 nM in “in vivo” (0.05 mg/kg, Plasma Conc.) and 102 nM in “in vivo” (Plasma Conc.). The molecule further gave a half-life in “in vivo” (0.05 mg/kg, T1/2) of approximately 2 h. Moreover, in “in vivo” (Plasma Conc.), the concentration at 3 h is 33.6 nM. Besides, the concentration at 7 h in the data set “in vivo” (Plasma Conc.) was 11.8 nM.

Values taken from patent US10166237B2, “Compounds and methods for inducing chondrogenesis” (The Scripps Research Institute, priority 2011, dated 2019).
